Data on one molecule can be found in patent US20080171350A1, “Neural Cell Differentiation Method From Es Cells” (NOVARTIS FORSCHUNGSSTIFTUNG, ZWEIGNIEDERLASSUNG FRIEDRICH …, priority 2004, published 2008).

The assay deals with ES cells-derived neurons. The experiment in a line: Whole-cell patch-clamp recordings on ES cells-derived neurons. The class given is cell-based, mouse. To be noted: cells in culture for 10 and up to 22 days.

On to `NS(=O)(=O)c1cccc2c1c([N+](=O)[O-])cc1nc(O)c(O)nc12` [NBQX], for which the “block of spontaneous synaptic currents (SSCs)” value is recorded as “blocking of synaptic currents”.
